The text below walks through data of patent US20100056458A1, “Peptides Inhibiting Angiotensin-Converting Enzyme” (CAMPINA NEDERLAND HOLDING B.V., priority 2005, published 2010).

One assay deals with angiotensin-converting enzyme (ACE). Description: HPLC with mass spectrometry and on-line bioassay unit for assessing ACE-inhibiting activity. Type of assay: biochemical. To be noted: another batch of the same caseinate. The source says: The identity and the activity of the peptides and their mixtures can be determined by known methods, e.g. as described by Van Elswijk et al. J Chromatography A, 1020 (2003) 45-58, involving liquid chromatography coupled to mass spectroscopy, and on-line bioassay. […] The IC50 can be determined in vitro as described by V. Vermeirsen, J. van Camp & J. Verstraete, “Optimisation and validation of an angiotensin-converting enzyme inhibition assay for the screening of bioactive peptides”. J. Biochem. Biophys. Methods 51, 75-87 (2002).
The peptides obtained according to example I, were analysed using HPLC as described by Van Elswijk et al. J Chromatography A 1020 (2003) 45-58. The HPLC eluate was divided over a mass spectrometry for determining the peptide structure and a bioassay unit for assessing the ACE-inhibiting activity. The following peptides were identified: AVP (SEQ ID No. 25), LV (SEQ ID No. 5) and IV (SEQ ID No. 1). Another batch of the same caseinate contained the peptides KIHP (SEQ ID No. 28), KK (SEQ ID No. 73), VPYPQR (SEQ ID No. 20), and KYKVPQ (SEQ ID No. 91). Starting with other casein sources the peptides VLGPV (SEQ ID No. 10), VLPVPQK (SEQ ID No. 75), VPYPQ (SEQ ID No. 21), KK (SEQ ID No. 73), VNELSK (SEQ ID No. 76), and […] (SEQ ID No. 33) were found.
Similarly the product from example II was analysed and contained IAEKT (SEQ ID No. 57), LDIQK (SEQ ID No. 74) and LKALP (SEQ ID No. 64). Starting from other whey protein sources WPC 60 or whey protein isolate, VLGPV (SEQ ID No. 10), VLPVPQ (SEQ ID No. 18), MKGLDI (SEQ ID No. 41), LR (SEQ ID No. 44), MHIRLS (SEQ ID No. 48), IIA (SEQ ID No. 56) were identified.
As for “KIHP (listed as Bos taurus) [β-casein-derived peptide]”, the “identified as ACE-inhibiting peptide” value is recorded as “contained”. Same read-out and setting: the result for KYKVPQ (listed as Bos taurus) reads “contained”.

For the substance “VPYPQR (listed as Bos taurus) [β-casein-derived peptide]”, the “identified as ACE-inhibiting peptide” value is listed as “contained”.

Still in this assay, the particulars now being: hydrolysate of example I (calcium caseinate).
On to AVP, for which the “identified as ACE-inhibiting peptide” value was “identified”.

The same assay, now with this note: other casein sources.
Take FFVAPFPEVFG (listed as Bos taurus): the “identified as ACE-inhibiting peptide” value is reported as “found”. Same read-out and setting: the result for “VLGPV (listed as Bos taurus) [β-casein peptide]” reads “found”; that for VLPVPQK (listed as Bos taurus), “found”; that for VNELSK (listed as Bos taurus), “found”. In the case of “VPYPQ (listed as Bos taurus) [β-casein-derived peptide]”, the “identified as ACE-inhibiting peptide” value is reported as “found”.

The same assay, now with this note: other whey protein sources WPC 60 or whey protein isolate.
Turning to IIA (listed as Bos taurus), the “identified as ACE-inhibiting peptide” value was “identified”. Regarding MHIRLS (listed as Bos taurus), the “identified as ACE-inhibiting peptide” value is recorded as “identified”. Still for that read-out and setting: to “MKGLDI (listed as Bos taurus) [β-lactoglobulin-derived peptide]” belongs “identified”.

On to “VLGPV (listed as Bos taurus) [β-casein peptide]”, for which the “identified as ACE-inhibiting peptide” value is listed as “identified”.

For VLPVPQ (listed as Bos taurus), the “identified as ACE-inhibiting peptide” value is “identified”.

The assay is the same for the next values; noted with them: product from example II (WPC 80 hydrolysate).
For the substance “IAEKT (listed as Bos taurus) [β-lactoglobulin-derived peptide]”, the “identified as ACE-inhibiting peptide” value is “contained”. Still for that read-out and setting: the result for “LDIQK (listed as Bos taurus) [β-lactoglobulin-derived peptide]” reads “contained”; that for “LKALP (listed as Bos taurus) [β-lactoglobulin-derived peptide]”, “contained”.
